Data reported in patent publication US20110076258A1, “METHODS OF MODULATING T CELL- DEPENDENT IMMUNE RESPONSES” (Converge Biotech Inc., priority 2008, published 2011).
Entries after “also recorded” stand apart in the source; their conditions may differ.

Key:
[1] = system: naïve CD4 crt^−/− and crt^+/+ T cells; assay: CD62L re-expression after activation with plate bound CD3 and CD28 antibodies (FACS); type: cell-based, mouse; conditions: crt^−/− and wild-type cells, 38 h
Description: FIG. 3: Mitochondrial Ca^2+ uptake during T cell activation leads to ATP synthesis and release. • a) ATP synthesis at different time points after T cell activation with CD3 antibodies in crt^−/− and crt^+/+ sorted naïve CD4^+ T cells (see Example 2). • b) ATP production upon T cell activation in the absence (control) or presence of the ATP synthetase inhibitor oligomycin. • c) FACS profile of CD62L expression on the surface of sorted naïve CD4 crt^−/− and crt^+/+ T cells at 38 h following activation with plate bound CD3 and CD28 antibodies. The same experiment was performed in the presence of oATP. • d) Naïve CD4^+ T cells were stained with the nucleotide binding compound quinacrine (see Example 2). The homogenous cytosolic staining indicates the absence of secretory vesicles containing ATP. • e) Subcellular fractionation of non-stimulated and activated naïve T cells on a continuous sucrose gradient (see Example 2). ATP was detected only in fractions containing also the cytosolic protein Zap-70 and not in those characterized by the small vesicular marker cellubrevin.
This shedding is thought to be inhibited by the P2X receptor antagonist oATP (Gu et al., Blood 92:946-951 (1998)). In vitro T cell activation of CD4 naïve T cells causes shedding of CD62L, which is progressively re-expressed following TCR triggering.

cd3ε^−/− mice = assay: Treg cell generation in murine model of inflammatory bowel disease; type: in vivo, mouse; conditions: 3 mM oATP in 100 μl i.v., with transfer or 16 hours after; day 28
Source text: FIG. 14: Experimental protocol for Treg generation in a mouse model of inflammatory bowel disease. • CD3ε^−/− mice were adoptively transferred with 2×10^5 naïve CD4^+ T cells; 2×10^5 naïve CD4^+ T cells with oATP; 2×10^5 naïve CD4^+ T cells with administration of oATP sixteen hours after the transfer; or 2×10^5 naïve CD4^+ T cells with 10^5 natural Treg cells. oATP-treated animals received daily intravenous oATP administration on days 2-5, no oATP administration on days 6 and 7, and daily intravenous oATP administration on days 8-12. Mice were analyzed for CD4^+ subpopulations on day 28 (See Example 12).
FIG. 15: Treg cell generation with oATP treatment in a mouse model of inflammatory bowel disease. • a) Colons, spleens and mesenteric lymph nodes of test animals were assessed for inflammation fourteen days after the last injection of oATP (see Example 12). • b) FACS analysis identifying the percentage of CD4^+CD25^highFoxp3 regulatory T cells. • c) FACS analysis identifying effector memory T cells as CD4^+CD44^+CD62L^− or CD4^+CD25^+CD69^+. The ratio of Treg cells to effector memory T cells is shown. […]
Four experimental groups of CD3ε^−/− mice were tested for Treg generation (FIG. 14). […] Mice were analyzed on day 28.
The colons of the animals were assessed for inflammation 14 days after the last injection of oATP (FIG. 15A). […]

ERK = ERK phosphorylation time course after CD3 stimulation, TCR signaling blocked with PP2 at 30 min; type: cell-based, mouse; conditions: added in combination with PP2
Description: After 30 min of stimulation, cells were either left untreated (first panel on the left), or treated with the src-like kinase inhibitor PP2 either alone (second panel) or in combination with oATP (third panel) or ARL (fourth panel).
In order to distinguish between TCR dependent and independent ERK activation, TCR signaling was blocked at 30 min after CD3 activation with the tyrosine kinase inhibitor PP2, which inhibits TCR dependent Ick/fyn src-like kinase activity.

Nc1ncnc2c1ncn2[C@@H](C=O)O[C@@H](C=O)COP(=O)(O)OP(=O)(O)OP(=O)(O)O [oATP]
CD62L re-expression after activation [1]: enhanced and identical re-expression efficiency | Treg generation from naïve T cells (cd3ε^−/− mice): most effective when oATP is present during the first activation of the naïve T cells | ERK phosphorylation / activity (ERK): significant inhibition; also recorded: almost completely abolished
